According to patent US11578095B2, “Compositions and methods for synthesizing 5'-Capped RNAs” (TriLink Biotechnologies, LLC, priority 2015, dated 2023):

Legend:
[1] = molecular target: T7 RNAP (Escherichia phage T7, UniProt P00573); details: transcription initiation; read-out: Kd for the first initiating NTP; cited from earlier work
[2] = molecular target: T1, T7 RNA polymerase (Escherichia phage T7, UniProt P00573); format: biochemical, T7 bacteriophage; details: Primer/NTP Formulation 1: 6 mM primer, 1.5 mM GTP, 7.5 mM each ATP, CTP, UTP; capped peaks/(capped + 5′ OH peak)
T1 construct: purchased New England Biolabs M0251
T1 sequence (P00573 whole entry): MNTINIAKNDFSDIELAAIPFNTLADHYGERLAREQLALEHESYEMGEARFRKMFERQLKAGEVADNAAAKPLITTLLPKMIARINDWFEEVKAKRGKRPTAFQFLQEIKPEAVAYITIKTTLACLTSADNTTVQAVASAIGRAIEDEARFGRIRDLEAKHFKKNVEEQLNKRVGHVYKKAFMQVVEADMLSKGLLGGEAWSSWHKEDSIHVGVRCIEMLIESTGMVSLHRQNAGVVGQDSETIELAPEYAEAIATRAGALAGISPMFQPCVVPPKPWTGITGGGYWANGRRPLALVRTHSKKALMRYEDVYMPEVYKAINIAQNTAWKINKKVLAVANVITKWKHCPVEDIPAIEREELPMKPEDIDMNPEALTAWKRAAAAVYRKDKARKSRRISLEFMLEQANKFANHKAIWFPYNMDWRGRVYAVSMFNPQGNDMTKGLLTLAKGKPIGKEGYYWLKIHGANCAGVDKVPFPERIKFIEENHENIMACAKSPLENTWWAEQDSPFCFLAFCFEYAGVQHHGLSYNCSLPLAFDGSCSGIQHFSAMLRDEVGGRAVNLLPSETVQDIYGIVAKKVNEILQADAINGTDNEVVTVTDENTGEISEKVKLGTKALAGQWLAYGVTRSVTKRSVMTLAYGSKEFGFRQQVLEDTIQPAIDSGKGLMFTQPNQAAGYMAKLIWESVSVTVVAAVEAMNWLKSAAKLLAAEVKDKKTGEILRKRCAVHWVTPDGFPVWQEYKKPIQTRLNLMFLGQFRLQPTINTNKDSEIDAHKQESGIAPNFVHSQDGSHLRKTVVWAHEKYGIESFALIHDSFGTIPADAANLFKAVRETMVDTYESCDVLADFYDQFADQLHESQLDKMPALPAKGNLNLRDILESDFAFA
Procedure: A double stranded DNA transcription template encoding firefly luciferase was generated by polymerase chain reaction. The +1 template nucleotide was 2′-deoxycytidine. Transcription reactions were assembled with 25 ug/mL transcription template, 40 mM Tris-HCl (pH 8.0), 27 mM MgCl2, 2 mM spermidine, 10 mM DTT, 0.002% Triton X-100, 1000 unit/mL murine RNase inhibitor (New England Biolabs catalog #M0314), 2 unit/mL inorganic pyrophosphatase (New England Biolabs catalog #M2403), 4000 units/mL T7 RNA polymerase (New England Biolabs catalog #M0251), 6 mM ARCA (^m7G3′OmepppGG), 1.5 mM GTP, 7.5 mM ATP, 7.5 mM CTP and 7.5 mM UTP. Transcriptions were incubated at 37° C. for 2 hours. Reactions were supplemented with 10 mM Tris-HCl (pH 7.6), 2.5 mM MgCl2, 0.5 mM CaCl2 and 100 units/mL DNase I (New England Biolabs catalog #M0303) and incubated for 1 hour at 37° C. The resulting mRNAs were purified using an RNeasy Maxi kit (Qiagen catalog #75162) according to manufacturer's instructions. mRNAs were eluted in water and dephosphorylated by adjusting the solution to 50 mM Bis-Tris-Propane HCl (pH 6.0), 1 mM MgCl2, 0.1 mM ZnCl2 and 250 units/mg Antarctic phosphatase (New England Biolabs catalog #M0289). The reaction were incubated at 37° C. for 1 hour. The resulting mRNAs were purified using an RNeasy Maxi kit (Qiagen catalog #75162) according to manufacturer's instructions. mRNAs were eluted in water.
A double stranded firefly luciferase DNA transcription template specific for each trimer is generated by polymerase chain reaction. These templates differed in template nucleotides +1 and +2. For a given trimer, template nucleotide +1 was complementary to B1 (the nucleotide destined to become transcript nucleotide +1). Likewise template nucleotide +2 was complementary to […] (the nucleotide destined to become transcript nucleotide +2; see Example 10)). Transcription reactions are assembled with 25 ug/mL transcription template, 40 mM Tris-HCl (pH 8.0), 27 mM MgCl2, 2 mM spermidine, 10 mM DTT, 0.002% Triton X-100, 1000 unit/mL murine RNase inhibitor (New England Biolabs catalog #M0314), 2 unit/mL inorganic pyrophosphatase (New England Biolabs catalog #M2403), 4000 units/mL T7 RNA polymerase (New England Biolabs catalog #M0251) and 6 mM of initiating capped oligonucleotide primer, 1.5 mM GTP and 7.5 mM each of ATP, CTP and UTP. In subsequent examples, this primer/NTP formulation will be referred to as Primer/NTP Formulation 1. It is clear to one skilled in the art that other polymerases such as T7, T3 or SP6 RNA polymerases could be used instead of T7 RNA polymerase to perform the same function by using their respective promoters. Transcription reaction mixtures are incubated at 37° C. for 2 hours. Reactions are supplemented with 10 mM Tris-HCl (pH 7.6), 2.5 mM MgCl2, 0.5 mM CaCl2 and 100 units/mL DNase I (New England Biolabs catalog #M0303) and incubated for 1 hour at 37° C. The resulting mRNAs are purified using an RNeasy Maxi kit (Qiagen catalog #75162) according to manufacturer's instructions. mRNAs are eluted in water and dephosphorylated by adjusting the solution to 50 mM Bis-Tris-Propane HCl (pH 6.0), 1 mM MgCl2, 0.1 mM ZnCl2 and 250 units/mg Antarctic phosphatase (New England Biolabs catalog #M0289). The reaction is incubated at 37° C. for 1 hour. The resulting mRNAs are purified using an RNeasy Maxi kit (Qiagen catalog #75162) according to manufacturer's instructions. mRNAs are eluted in water.
Initiating capped oligonucleotide primer ^7mG3′OmepppA2′OmepG2′OmepG were used in transcription. Transcription were carried out as in Example 11 with the following modifications. A double stranded DNA transcription template specific for tetramer was generated by polymerase chain reaction. The template nucleotide +1 (2′-deoxythymidine) was complementary to Adenosine (the first nucleotide of the primer destined to become a transcript nucleotide +1).

[3] = system: THP-1 cells; assay: Translation of luciferase mRNAs in differentiated THP-1 cells; format: cell-based; details: 100 ng mRNA per well
Procedure: In order to assess the expression of luciferase mRNAs generated in Examples 14 and 15, mRNAs were transfected into THP-1 cells (ATCC, Catalog #TIB-202) with six replicates. THP-1 cells were cultured in ATCC formulated RPMI-1640 (ATCC, Catalog #30-2001) supplemented with 10% FBS, sodium pyruvate and penicillin/streptomycin at 37° C. under an atmosphere of 5% CO2. Cells were seeded at 2E+05 cells per well in a 24-well plate format in the presence of the phorbol ester 12-O-Tetradecanoylphorbol-13-acetate (TPA; Cell Signaling Technologies, Catalog #4174) to induce differentiation. Cells were transfected with 100 ng of mRNA per well 72 hours after seeding. For comparison, cells were also transfected with a Cap0 luciferase mRNA generated by initiation with ARCA. At 20 hours post-transfection, cells were harvested and luciferase activity was measured using a ONE-Glo Luciferase Assay System kit (Promega Catalog #E6120) according to the manufacturer's recommendations. Luminescence was measured using a GloMax-Multi+Detection System instrument according to the manufacturer's recommendations. Data were graphed as the mean of six replicates +/−the standard deviation from the mean. Data were analyzed using the Unpaired t-test to generate p values as a measure of significance. […] In FIG. 14B, we also assessed the activity of an mRNA that was made with the “TC” Template and capped with ARCA (Cap 0). […]

[4] = excess of ^7mGpppG over pppG from 4:1 to 10:1; cited from earlier work
[5] = molecular target: T1, T7 RNA polymerase; assay: Capping assay (LC-MS) of mRNA made with ^m7GpppA2′OmepG on "TC" vs "CC" transcription template; format: biochemical, T7 bacteriophage
Procedure: (§1) A double stranded firefly luciferase DNA transcription template was used with 2′-deoxythymidine and 2′-deoxycytidine residues at template positions +1 and +2, respectively. Two transcription reactions were assembled with 25 ug/mL transcription template, 40 mM Tris-HCl (pH 8.0), 27 mM MgCl2, 2 mM spermidine, 10 mM DTT, 0.002% Triton X-100, 1000 unit/mL murine RNase inhibitor (New England Biolabs catalog #M0314), 2 unit/mL inorganic pyrophosphatase (New England Biolabs catalog #M2403), 4000 units/mL T7 RNA polymerase (New England Biolabs catalog #M0251). The two transcriptions differed in the amount of initiating capped oligonucleotide, amount of NTPs and the identity of NTPs. The first transcription was designed to mimic the transcription conditions of Ishikawa et al. (Nucleic Acids Symposium Series No. 53:129 (2009)). This transcription reaction contained 6 mM of ^m7GpppA2′OmepG initiating capped oligonucleotide primer, 0.9 mM GTP and 7.5 mM of ATP, CTP and UTP. In subsequent examples this primer/NTP formulation will be referred to as Primer/NTP Formulation 2. In this formulation, the initiating oligonucleotide primer was in greater than 6 fold excess over GTP. The second transcription used 5 mM of ^m7GpppA2′OmepG initiating capped oligonucleotide primer, 5 mM GTP, ATP, CTP and pseudouridine triphosphate […]. In subsequent examples this primer/NTP formulation will be referred to as Primer/NTP Formulation 3. In Primer/NTP Formulation 3, the GTP concentration was increased in order to produce commercially useful amounts of RNA. It is clear to one skilled in the art that other polymerases such as T7, T3 or SP6 RNA polymerases could be used instead of T7 RNA polymerase to perform the same function by using their respective promoters. Transcription reaction mixtures are incubated at 37° C. for 2 hours. Reactions were supplemented with 10 mM Tris-HCl (pH 7.6), 2.5 mM MgCl2, 0.5 mM CaCl2 and 100 units/mL DNase I (New England Biolabs catalog #M0303) and incubated for 1 hour at 37° C. The resulting mRNAs were purified using an RNeasy Maxi kit (Qiagen catalog #75162) according to manufacturer's instructions. mRNAs were eluted in water and dephosphorylated by adjusting the solution to 50 mM Bis-Tris-Propane HCl (pH 6.0), 1 mM MgCl2, 0.1 mM ZnCl2 and 250 units/mg Antarctic phosphatase (New England Biolabs catalog #M0289). The reaction was incubated at 37° C. for 1 hour for Primer/NTP Formulation 2 and 3 hours for Primer/NTP Formulation 3 hour. The resulting mRNAs were purified using an RNeasy Maxi kit (Qiagen catalog #75162) according to manufacturer's instructions. mRNAs were eluted in water. The purified transcription yields with Primer/NTP Formulation 2 and 3 were 0.7 milligram/milliliter transcription reaction (mg/mL) and 3.9 mg/mL transcription reaction, respectively.
A double stranded firefly luciferase DNA transcription template was used in which the +1 and +2 template nucleotides were cytidines and thus not completely complementary to the ^m7GpppA2′OmepG initiating capped oligonucleotide primer. Two transcription reactions were assembled with 25 ug/mL transcription template, 40 mM Tris-HCl (pH 8.0), 27 mM MgCl2, 2 mM spermidine, 10 mM DTT, 0.002% Triton X-100, 1000 unit/mL murine RNase inhibitor (New England Biolabs catalog #M0314), 2 unit/mL inorganic pyrophosphatase (New England Biolabs catalog #M2403), 4000 units/mL T7 RNA polymerase (New England Biolabs catalog #M0251). The two transcriptions differed in the amount of initiating capped oligonucleotide and NTPs. The first transcription was designed to mimic the transcription conditions of Ishikawa et al. (Nucleic Acids Symposium Series No. 53: 129 (2009)). This transcription reaction contained Primer/NTP Formulation 2. The second transcription used Primer/NTP Formulation 3. It is clear to one skilled in the art that other polymerases such as T7, T3 or SP6 RNA polymerases could be used instead of T7 RNA polymerase to perform the same function by using their respective promoters. […]

[6] = molecular target: T1, T7 RNA polymerase; assay: In vitro transcription of firefly luciferase template, purified transcription yield; format: biochemical, T7 bacteriophage
Procedure: as §1, with “reaction, respectively. […]” for “reaction, respectively.”

Chain of T7 RNAP (P00573 whole entry): as above

Nc1nc2c(ncn2[C@@H]2O[C@H](COP(=O)(O)OP(=O)(O)OP(=O)(O)O)[C@@H](O)[C@H]2O)c(=O)[nH]1 [GTP, guanosine triphosphate]
Kd [1]: 2000 µM

^7mG(3′-O-Me)pppG [^m7G3′OmepppG, reference compound]
observed % capping (capping efficiency) [2]: 79%
luciferase activity relative to transcripts made with ^m7GpppA2′OmepG on "TC" template ([3]; "TC" template, 20 hours post-transfection (FIG. 14B)): significantly less activity

^7mG(5′)ppp(5′)G [^7mGpppG]
5′-Cap structure mRNA transcripts [4]: 80-90%

^m7G3′OmepppA2′OmepG
observed % capping (capping efficiency) [2]: 99%

^m7G3′OmepppC2′OmepG
observed % capping (capping efficiency) [2]: 97%

^m7G3′OmepppG2′OmepG
observed % capping (capping efficiency) [2]: 87%

^m7GpppA2′OmepG
observed % capping (capping efficiency) [2]: 99%
fidelity of templated transcription initiation ([5]; template +1/+2 2′-deoxythymidine/2′-deoxycytidine, Formulations 2 and 3 (FIGS. 13A, 13B)): Only minor aberrant initiation products were detected
capping efficiency ([5]; template +1/+2 2′-deoxythymidine/2′-deoxycytidine, Primer/NTP Formulation 2 (FIG. 13A)): 99%
capping efficiency ([5]; template +1/+2 2′-deoxythymidine/2′-deoxycytidine, Primer/NTP Formulation 3 (FIG. 13B)): 96%
fidelity of templated transcription initiation ([5]; template +1/+2 cytidine, Formulations 2 and 3 (FIGS. 13C, 13D)): initiated in two registers
calculated capping efficiency (Cap 1+A and Cap 1 GtoA) ([5]; template +1/+2 cytidine, Primer/NTP Formulation 2 (FIG. 13C)): 97%
calculated capping efficiency (Cap 1+A and Cap 1 GtoA) ([5]; template +1/+2 cytidine, Primer/NTP Formulation 3 (FIG. 13D)): 77%
translation (luciferase activity), "TC" template vs "CC" template ([3]; 20 hours post-transfection, Primer/NTP Formulations 2 and 3 (FIG. 14A, 14B)): significantly superior
purified transcription yield ([6]; template +1/+2 2′-deoxythymidine/2′-deoxycytidine, Primer/NTP Formulation 2): 0.7 mg/mL
purified transcription yield ([6]; template +1/+2 2′-deoxythymidine/2′-deoxycytidine, Primer/NTP Formulation 3): 3.9 mg/mL
purified transcription yield ([6]; template +1/+2 cytidines, Primer/NTP Formulation 2): 0.6 mg/mL
purified transcription yield ([6]; template +1/+2 cytidines, Primer/NTP Formulation 3): 3.9 mg/mL

^m7GpppA2′OmepG2′OmepG
observed % capping (capping efficiency) [2]: 50%

^m7GpppC2′OmepG
observed % capping (capping efficiency) [2]: 98%

^m7GpppG2′OmepG
observed % capping (capping efficiency) [2]: 89%
